# Data from PubChem BioAssay AID2060488 (Molecular Pharmacology Branch, DTP, NCI, 2025).
# Where “and” joins values, the source holds several entries; their conditions need not be identical. Equal entries are not always repeated.
# Test system: 966289-007-R4-J1-PDC complex spheroid viability
# Assay: Anticancer human tumor 966289-007-R4-J1-PDC patient-derived pancreatic adenocarcinoma cell line growth inhibition [GQUAD]
# Settings: for viability, T/C: stronger effect = lower value
# Description: DNA G-quadruplex Stabilizer Agents in Combinations in Complex Spheroids
# A high-throughput screen of multi-cell type tumor spheroids was designed to identify active combinations of DNA G-quadruplex stabilizer agents and targeted small molecules. Complex spheroids include a stromal component modeled by human endothelial cells (HUVEC) and fibroblasts modeled by human mesenchymal stem cells (MSCs). The concentration ranges selected for each drug and investigational agent were based upon clinically achievable concentrations if the clinical Cmax of the agent was known.
# Compounds. The drugs and investigational agents: pidnarulex (CX-5461; NSC782164), APTO-253 (NSC789042), BRACO-19 (NSC847499), peposertib (NSC802822), ceralasertib (NSC780249), elimusertib (NSC800525), camonsertib (NSC841442), AZD-1390 (NSC803789), olaparib (NSC753686), talazoparib (NSC767125), ART-558 (NSC835418), sotorasib (NSC818433), MRTX-1133 (NSC836407), SN-38 (NSC673596), topotecan (NSC609699), etoposide (NSC141540), doxorubicin (NSC123127), gemcitabine (NSC613327), 5-fluorouracil (NSC19893), paclitaxel (NSC125973), vemurafenib (NSC761431), panobinostat (NSC761190), R-306465 (JNJ-16241199; NSC773264), adavosertib (NSC754352), TP-3654 (NSC805149), carboplatin (NSC241240), KSQ-4279 (NSC840948), and staurosporine (NSC755774) were obtained from the National Cancer Institute (NCI) Developmental Therapeutics Program Chemical Repository (34). The FDA-approved anticancer drug set is available from the NCI Developmental Therapeutics Program. […] The stock solutions were prepared in dimethyl sulfoxide (DMSO, Sigma-Aldrich, St. Louis, MO, cat. D2650) at 800-fold the tested concentration and stored at -70 degrees C prior to their use. All drugs and investigational agents were tested over a range starting from a high concentration at or near the clinical Cmax and decreasing in half-log increments. If the clinical Cmax for an agent had not been determined, the highest concentration tested was 10 microM.
# 2.3 Cell Culture. All cells were maintained in an incubator at 37 degrees C and 5% CO2 with 95% humidity. The PDC lines were cultured according to standard operating procedures established by the NCI PDMR. All PDCs were thawed and cultured in Matrigel-coated flasks prepared with a working solution of 1X Ham's F-12 nutrient mix, without supplementation (Invitrogen, cat. 11765054), 100 U/mL penicillin-streptomycin (Invitrogen, cat. 15140122), and 2.5% Matrigel (Corning Inc., cat. 354248) for the first three passages. The 857933-349-R-J2-PDC line was cultured in 6C/Colon 1B media, which includes advanced DMEM/F-12 (Thermo Fisher Scientific, cat. 12634028), 10 mM HEPES (Thermo Fisher Scientific, cat. 15630080), 1X GlutaMAX supplement (Thermo Fisher Scientific, cat. 35050061), 0.1 mg/mL primocin (InvivoGen, cat. ant-pm-2), 10% defined fetal bovine serum, heat inactivated (HyClone Laboratories Inc., cat. SH30070.03HI), 50% L-WRN conditioned media (ATCC, cat. CRL-3276), 1.25 mM N-Acetyl-L-cysteine (Sigma-Aldrich, cat. A9165), 10 mM nicotinamide (Sigma-Aldrich, cat. N0636), 1X B-27 supplement (Thermo Fisher Scientific, cat. 17504044), 1X N-2 supplement (Thermo Fisher Scientific, cat. 17502048), 10 microM Y-27632 dihydrochloride (Tocris Bioscience, cat. 1254), and 50 ng/mL human EGF recombinant protein (Thermo Fisher Scientific, cat. PHG0311). The 485176-168-R4-J1-PDC line was cultured in Panc media, which includes all 6C/Colon 1B media components plus 100 ng/mL human FGF-10 (Thermo Fisher Scientific, cat. 100-26), 500 nM SB-431542 (Selleckchem, cat. S1067), and gastrin (Tocris, cat. 3006).
# […]
# [1] = curve of first compound, second compound 0.0316 µM
# [2] = curve of first compound, second compound 0.1 µM
# [3] = curve of first compound, second compound 0.316 µM
# [4] = curve of first compound, second compound 1 µM
# [5] = curve of first compound, second compound 3.16 µM
# [6] = curve of first compound, second compound 10 µM
# [7] = second compound 0.0316 µM, first compound 0.0316 µM
# [8] = second compound 0.0316 µM, first compound 0.1 µM
# [9] = second compound 0.0316 µM, first compound 0.316 µM
# [10] = second compound 0.0316 µM, first compound 1 µM
# [11] = second compound 0.0316 µM, first compound 3.16 µM
# [12] = second compound 0.0316 µM, first compound 10 µM
# [13] = second compound 0.1 µM, first compound 0.0316 µM
# [14] = second compound 0.1 µM, first compound 0.1 µM
# [15] = second compound 0.1 µM, first compound 0.316 µM
# [16] = second compound 0.1 µM, first compound 1 µM
# [17] = second compound 0.1 µM, first compound 3.16 µM
# [18] = second compound 0.1 µM, first compound 10 µM
# [19] = second compound 0.316 µM, first compound 0.0316 µM
# [20] = second compound 0.316 µM, first compound 0.1 µM
# [21] = second compound 0.316 µM, first compound 0.316 µM
# [22] = second compound 0.316 µM, first compound 1 µM
# [23] = second compound 0.316 µM, first compound 3.16 µM
# [24] = second compound 0.316 µM, first compound 10 µM
# [25] = second compound 1 µM, first compound 0.0316 µM
# [26] = second compound 1 µM, first compound 0.1 µM
# [27] = second compound 1 µM, first compound 0.316 µM
# [28] = second compound 1 µM, first compound 1 µM
# [29] = second compound 1 µM, first compound 3.16 µM
# [30] = second compound 1 µM, first compound 10 µM
# [31] = second compound 3.16 µM, first compound 0.0316 µM
# [32] = second compound 3.16 µM, first compound 0.1 µM
# [33] = second compound 3.16 µM, first compound 0.316 µM
# [34] = second compound 3.16 µM, first compound 1 µM
# [35] = second compound 3.16 µM, first compound 3.16 µM
# [36] = second compound 3.16 µM, first compound 10 µM
# [37] = second compound 10 µM, first compound 0.0316 µM
# [38] = second compound 10 µM, first compound 0.1 µM
# [39] = second compound 10 µM, first compound 0.316 µM
# [40] = second compound 10 µM, first compound 1 µM
# [41] = second compound 10 µM, first compound 3.16 µM
# [42] = second compound 10 µM, first compound 10 µM
# 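Also: spheroids exposed to the agents for seven days before readout.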
# 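For viability, T/C in this document: percent viability relative to DMSO vehicle control wells taken as 100%.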
structure (smiles),measurement,setting,value
O=c1[nH]cc(F)c(=O)[nH]1 + Cc1cnc(CNC(=O)c2c(=O)c3ccc(N4CCCN(C)CC4)nc3n3c2sc2ccccc23)cn1,IC50,[1],152 nM
same,IC50,[2],< 31.6 nM
same,IC50,[3],< 31.6 nM
same,IC50,[4],< 31.6 nM
same,IC50,[5],< 31.6 nM
same,IC50,[6],< 31.6 nM
same,"viability, T/C",[7],110%
same,"viability, T/C",[8],70.7%
same,"viability, T/C",[9],13.4%
same,"viability, T/C",[10],6.62%
same,"viability, T/C",[11],6.16%
same,"viability, T/C",[12],7.17%
same,"viability, T/C",[13],35.3%
same,"viability, T/C",[14],38.2%
same,"viability, T/C",[15],16.7%
same,"viability, T/C",[16],9.09%
same,"viability, T/C",[17],8.85%
same,"viability, T/C",[18],9.1%
same,"viability, T/C",[19],11%
same,"viability, T/C",[20],14.4%
same,"viability, T/C",[21],13.6%
same,"viability, T/C",[22],10.8%
same,"viability, T/C",[23],10.2%
same,"viability, T/C",[24],12.7%
same,"viability, T/C",[25],6.94%
same,"viability, T/C",[26],8.36%
same,"viability, T/C",[27],9.57%
same,"viability, T/C",[28],9.08%
same,"viability, T/C",[29],8.58%
same,"viability, T/C",[30],8.28%
same,"viability, T/C",[31],4.97%
same,"viability, T/C",[32],5.62%
same,"viability, T/C",[33],7.29%
same,"viability, T/C",[34],6.64%
same,"viability, T/C",[35],6.67%
same,"viability, T/C",[36],8.36%
same,"viability, T/C",[37],0.04%
same,"viability, T/C",[38],0.08%
same,"viability, T/C",[39],2.48%
same,"viability, T/C",[40],0.28%
same,"viability, T/C",[41],2.43%
same,"viability, T/C",[42],0.18%
COc1cccc2c1C(=O)c1c(O)c3c(c(O)c1C2=O)CC(O)(C(=O)CO)CC3OC1CC(N)C(O)C(C)O1 (centres undefined) + Cc1[nH]c2ccc(F)cc2c1-c1nc2c3cccnc3c3ncccc3c2[nH]1,IC50,[1],67.3 nM
same,IC50,[2],63.6 nM
same,IC50,[3],61.1 nM
same,IC50,[4],61.2 nM
same,IC50,[5],56.5 nM
same,IC50,[6],52 nM
same,"viability, T/C",[7],114%
same,"viability, T/C",[8],16.4%
same,"viability, T/C",[9],1.91%
same,"viability, T/C",[10],0.7%
same,"viability, T/C",[11],0.21%
same,"viability, T/C",[12],0.6%
same,"viability, T/C",[13],104%
same,"viability, T/C",[14],15.1%
same,"viability, T/C",[15],2.16%
same,"viability, T/C",[16],0.91%
same,"viability, T/C",[17],0.22%
same,"viability, T/C",[18],0.26%
same,"viability, T/C",[19],100%
same,"viability, T/C",[20],12.6%
same,"viability, T/C",[21],2.39%
same,"viability, T/C",[22],0.78%
same,"viability, T/C",[23],0.23%
same,"viability, T/C",[24],0.33%
same,"viability, T/C",[25],97.1%
same,"viability, T/C",[26],14.7%
same,"viability, T/C",[27],2.52%
same,"viability, T/C",[28],0.71%
same,"viability, T/C",[29],0.32%
same,"viability, T/C",[30],0.5%
same,"viability, T/C",[31],87.9%
same,"viability, T/C",[32],12.9%
same,"viability, T/C",[33],2.39%
same,"viability, T/C",[34],0.86%
same,"viability, T/C",[35],0.29%
same,"viability, T/C",[36],0.56%
same,"viability, T/C",[37],79.9%
same,"viability, T/C",[38],10.9%
same,"viability, T/C",[39],1.72%
same,"viability, T/C",[40],0.61%
same,"viability, T/C",[41],0.4%
same,"viability, T/C",[42],0.57%
CC1COCCN1c1cc(C2(S(C)(=N)=O)CC2)nc(-c2ccnc3[nH]ccc23)n1 (centres undefined),"viability, T/C",compound 0.0316 µM,105% and 101% and 96.9%
same,"viability, T/C",compound 0.1 µM,104% and 98.3% and 105%
same,"viability, T/C",compound 0.316 µM,109% and 99.3% and 108%
same,"viability, T/C",compound 1 µM,95.2% and 103% and 108%
same,"viability, T/C",compound 3.16 µM,45.6% and 71.7% and 117%
same,"viability, T/C",compound 10 µM,6.26% and 10.7% and 7.26%
same,IC50,curve of compound,2850 nM and 4770 nM and 6110 nM
CC1COCCN1c1cc(C2(S(C)(=N)=O)CC2)nc(-c2ccnc3[nH]ccc23)n1 (centres undefined) + Cc1cnc(CNC(=O)c2c(=O)c3ccc(N4CCCN(C)CC4)nc3n3c2sc2ccccc23)cn1,IC50,[1],2700 nM
same,IC50,[2],< 31.6 nM
same,IC50,[3],< 31.6 nM
same,IC50,[4],< 31.6 nM
same,IC50,[5],< 31.6 nM
same,IC50,[6],< 31.6 nM
same,"viability, T/C",[7],119%
same,"viability, T/C",[8],108%
same,"viability, T/C",[9],107%
same,"viability, T/C",[10],44.5%
same,"viability, T/C",[11],68.7%
same,"viability, T/C",[12],3.76%
same,"viability, T/C",[13],42.7%
same,"viability, T/C",[14],34.2%
same,"viability, T/C",[15],20.3%
same,"viability, T/C",[16],11.8%
same,"viability, T/C",[17],15.3%
same,"viability, T/C",[18],4.26%
same,"viability, T/C",[19],16.7%
same,"viability, T/C",[20],13.1%
same,"viability, T/C",[21],12.2%
same,"viability, T/C",[22],8.4%
same,"viability, T/C",[23],11.7%
same,"viability, T/C",[24],3.59%
same,"viability, T/C",[25],7.28%
same,"viability, T/C",[26],8.94%
same,"viability, T/C",[27],8.19%
same,"viability, T/C",[28],6.87%
same,"viability, T/C",[29],8.21%
same,"viability, T/C",[30],2.84%
same,"viability, T/C",[31],5.74%
same,"viability, T/C",[32],6.34%
same,"viability, T/C",[33],6.62%
same,"viability, T/C",[34],5.33%
same,"viability, T/C",[35],6.14%
same,"viability, T/C",[36],2.86%
same,"viability, T/C",[37],0.15%
same,"viability, T/C",[38],0.14%
same,"viability, T/C",[39],0.19%
same,"viability, T/C",[40],0.18%
same,"viability, T/C",[41],0.19%
same,"viability, T/C",[42],0.16%
Cc1cnc(CNC(=O)c2c(=O)c3ccc(N4CCCN(C)CC4)nc3n3c2sc2ccccc23)cn1,"viability, T/C",compound 0.1 µM,36.7% [middle of 12 runs]
same,"viability, T/C",compound 0.316 µM,12.6% [middle of 12 runs]
same,"viability, T/C",compound 1 µM,6.91% [middle of 11 runs]
same,"viability, T/C",compound 3.16 µM,5.45% [middle of 11 runs]
same,"viability, T/C",compound 10 µM,0.16% [middle of 11 runs]
same,IC50,"compound alone, run of 03/18/2024",81.7 nM [middle of 11 runs]
